Counter-ions that a name gives are not always drawn.
Assays:
activated human C1 = activated human C1 (Homo sapiens, UniProt P09871); test: Test Code 026 (C1 inhibitor); format: biochemical; details: serial twofold dilution assay; higher well number indicates higher activity
Protocol: (§1) An active inhibitor protects C2 from C1 and C4; (ii) Test Code 035 (C3-C9 inhibitor)--This test determines the ability of the late components of human complement (C3-C9) to lyse EAC 142 in the presence of appropriate dilutions of the test compound. An active inhibitor protects EAC 142 from lysis by human C3-C9; (iii) Cap 50 Test--Here, appropriate amounts of the test compound are added to a pool of guinea pig or human serum in vitro, after which the undiluted serum capillary tube assay of U.S. Pat. No. 3,876,376 is run. The concentration of compound inhibiting 50% is reported; and (iv) Guinea Pig Intraperitoneal Test (GPIP)--Guinea pigs weighing about 300 g are dosed intraperitoneally (i.p.) with 200 mg/kg of the test compound dissolved in saline and adjusted to pH 7-8. Approximately 0.4 ml blood samples, taken by orbital sinus puncture 2 hours and 6 hours after injections, are collected directly into centrifuge tubes; 5 ml blood samples, taken by decapitation 24 hours after injection, are collected directly into beakers. The samples are allowed to clot, centrifuged, and the resultant sera are assayed for complement activity using the capillary complement assay. Percent inhibition is calculated by comparison with simultaneous controls. The results of the GPIP appear in Table I together with results of Test Code 026, 035 and Cap 50.

[1] = system: late components of human complement (C3-C9); test: Test Code 035 (C3-C9 inhibitor), lysis of EAC 142; format: biochemical; details: serial twofold dilution assay; higher well number indicates higher activity
Protocol: as §1

human serum complement = details: both in vitro and in vivo; cited from earlier work

Question: For O=S(=O)(O)OC[C@H]1O[C@@H](Sc2cccc(S[C@@H]3O[C@H](COS(=O)(=O)O)[C@@H](O[C@H]4O[C@H](COS(=O)(=O)O)[C@@H](OS(=O)(=O)O)[C@H](OS(=O)(=O)O)[C@H]4OS(=O)(=O)O)[C@H](OS(=O)(=O)O)[C@H]3OS(=O)(=O)O)c2)[C@H](OS(=O)(=O)O)[C@@H](OS(=O)(=O)O)[C@@H]1O[C@H]1O[C@H](COS(=O)(=O)O)[C@@H](OS(=O)(=O)O)[C@H](OS(=O)(=O)O)[C@H]1OS(=O)(=O)O [1,3-Bis-[4-O-α-D-glucopyranosyl-β-D-glucopyranosyl-1-thio]-phenylene, tetradecakis(H-sulfate),tetradecasodium salt], which “C1 026 Wells” value (activated human C1) is on record?
Answer: The value was 12 Wells.

Question: What about the “C-Late 035 Wells” value [1] of the same compound?
Answer: Its value is 0.9 Wells.

Question: With O=S(=O)(O)OC[C@H]1O[C@@H](Sc2ccc(-c3ccc(S[C@@H]4O[C@H](COS(=O)(=O)O)[C@@H](O[C@H]5O[C@H](COS(=O)(=O)O)[C@@H](OS(=O)(=O)O)[C@H](OS(=O)(=O)O)[C@H]5OS(=O)(=O)O)[C@H](OS(=O)(=O)O)[C@H]4OS(=O)(=O)O)cc3)cc2)[C@H](OS(=O)(=O)O)[C@@H](OS(=O)(=O)O)[C@@H]1O[C@H]1O[C@H](COS(=O)(=O)O)[C@@H](OS(=O)(=O)O)[C@H](OS(=O)(=O)O)[C@H]1OS(=O)(=O)O [4,4'-Bis-[4-O-α-D-glucopyranosyl-β-D-glucopyranosyl-1-thio]-1,1'-biphenylene, tetradecakis(H-sulfate), tetradecasodium salt] as the compound, how does the “C1 026 Wells” value (activated human C1) read?
Answer: Its value is 13 Wells.

Question: And the “C-Late 035 Wells” value [1]?
Answer: The value was 2 Wells.

Question: With pentosanpolysulfoester as the compound, how does the “anticomplementary activity, judged by reduction in total hemolytic complement activity” value (human serum complement) read?
Answer: Its value is “anticomplementary activity”.

— patent US4407796A, “Modulators of the complement system” (American Cyanamid Company, priority 1981, dated 1983)
